The results in this text go back to patent US6448436B1, “Integrated process for the production of 2, 6-naphthalene dicarboxylic acid” (Mossi & Ghisolfi Overseas, S. A., priority 1999, dated 2002).

Structures are written as SMILES.

A short description of this series: Solubility of the potassium salts equilibrated in aqueous potassium carbonate solutions. It counts as physicochemical. The text has this:
The data was gathered by equilibrating the potassium salts of 2-KNA and 2,6-K2NDA in aqueous solutions of potassium carbonate. The capped jars were contained in water baths to control the temperature and were magnetically stirred to speed the dissolution of the solids. Data derived from the solubility studies are outlined in Table 6.

The mark [1] stands for this setting: 10 wt % K2CO3 aqueous solution, 35° C.
Where [2] appears, read: 15 wt % K2CO3 aqueous solution, 35° C.
The mark [3] stands for this setting: 20 wt % K2CO3 aqueous solution, 35° C.
The mark [4] stands for this setting: 20 wt % K2CO3 aqueous solution, 80° C.
[5] abbreviates: 25 wt % K2CO3 aqueous solution, 35° C.
[6] abbreviates: 25 wt % K2CO3 aqueous solution, 80° C.
Setting [7] is: 30 wt % K2CO3 aqueous solution, 35° C.
The mark [8] stands for this setting: 30 wt % K2CO3 aqueous solution, 80° C.

As to `O=C([O-])c1ccc2ccccc2c1.[K+]` [2-KN], the Solubility reads like this: under setting [1], 33.9 wt %; under setting [2], 13.2 wt %; under setting [3], 2.1 wt %; under setting [4], 41.1 wt %; under setting [5], 0.4 wt %; under setting [6], 19.2 wt %. Further, the Solubility runs as follows: under setting [7], 0.2 wt %; under setting [8], 7.4 wt %.

As for `O=C([O-])c1ccc2cc(C(=O)[O-])ccc2c1.[K+].[K+]` [2,6-K2NDA, dipotassium salt of 2,6-NDA], the “Solubility Ratio 2,6-K2NDA/2-KNA” value is, setting by setting: (10 wt % K2CO3, 35° C.) 0.41; (15 wt % K2CO3, 35° C.) 0.52; (20 wt % K2CO3, 35° C.) 1.13; (20 wt % K2CO3, 80° C.) 0.13; (25 wt % K2CO3, 35° C.) 1.41; (25 wt % K2CO3, 80° C.) 0.08. Also, the “Solubility Ratio 2,6-K2NDA/2-KNA” value is on record as 1.33 (30 wt % K2CO3, 35° C.) and 0.08 (30 wt % K2CO3, 80° C.). Further, the Solubility is 13.8 wt % under setting [1]; 6.8 wt % under setting [2]; 2.4 wt % under setting [3]; 5.5 wt % under setting [4]; 0.6 wt % under setting [5]; 1.6 wt % under setting [6]. The Solubility runs as follows: under setting [7], 0.2 wt %; under setting [8], 0.6 wt %. Further, the “Temperature dependence of solubility” value (aqueous K2CO3 solutions, 35° C. vs 80° C.) is listed as “only a weak function of temperature”.
